Measurements reported in article PMC7177849, “Gut Microbial Catabolites of Tryptophan Are Ligands and Agonists of the Aryl Hydrocarbon Receptor: A Detailed Characterization” (International Journal of Molecular Sciences, 2020).
Read-outs that look alike come from different tables or passages of the source.

What was measured:
[1] = biological target: T1, AhR (Homo sapiens, UniProt P35869); assay: Reporter gene assay in AZ-AHR cells, antagonist analyses against TCDD, BaP, FICZ; details: for effect on AhR activation by BaP / effect on AhR activation by TCDD / antagonistic effect against full agonists / effect on AhR activation by FICZ: AZ-AHR cells, 24 h; for effect on AhR activation by BaP: BaP 15.8 µM; for effect on AhR activation by TCDD: TCDD 13.5 nM; for antagonistic effect against full agonists: TCDD, BaP and FICZ at EC80; for effect on AhR activation by FICZ: FICZ 22.6 µM
T1 sequence (P35869 11-848): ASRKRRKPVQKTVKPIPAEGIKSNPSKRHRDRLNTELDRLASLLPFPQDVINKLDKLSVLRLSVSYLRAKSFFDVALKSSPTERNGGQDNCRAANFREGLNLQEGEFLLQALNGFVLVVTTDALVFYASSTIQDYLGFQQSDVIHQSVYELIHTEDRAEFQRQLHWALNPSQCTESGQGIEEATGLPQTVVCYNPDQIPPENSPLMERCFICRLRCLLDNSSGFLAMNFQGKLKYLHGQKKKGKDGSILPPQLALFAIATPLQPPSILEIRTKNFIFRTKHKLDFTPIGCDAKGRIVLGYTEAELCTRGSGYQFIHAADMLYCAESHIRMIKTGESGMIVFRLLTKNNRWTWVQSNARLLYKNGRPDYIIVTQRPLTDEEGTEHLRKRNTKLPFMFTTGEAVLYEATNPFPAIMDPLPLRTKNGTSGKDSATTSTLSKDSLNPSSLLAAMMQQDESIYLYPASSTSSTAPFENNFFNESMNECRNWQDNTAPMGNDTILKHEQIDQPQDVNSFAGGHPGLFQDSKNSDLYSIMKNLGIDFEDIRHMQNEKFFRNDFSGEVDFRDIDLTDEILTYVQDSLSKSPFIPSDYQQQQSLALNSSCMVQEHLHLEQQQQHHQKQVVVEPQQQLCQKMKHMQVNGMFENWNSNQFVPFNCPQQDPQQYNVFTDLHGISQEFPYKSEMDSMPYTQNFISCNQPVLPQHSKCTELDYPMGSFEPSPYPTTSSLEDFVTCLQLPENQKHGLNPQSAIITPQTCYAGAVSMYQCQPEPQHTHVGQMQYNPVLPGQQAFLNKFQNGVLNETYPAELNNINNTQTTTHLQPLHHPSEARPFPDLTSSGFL
Experimental: In the first series of experiments, we evaluated the agonistic and antagonistic effects of MICT on the AhR activation. […] The antagonistic effects of MICT were evaluated against typical full agonists of the AhR, comprising TCDD, BaP, and FICZ, which were applied at fixed concentrations corresponding to their EC80.
AZ-AHR cells were incubated for 24 h with vehicle (DMSO; 0.1% v/v) and increasing concentrations of MICT, in the absence (agonist analyses) or the presence (antagonist analyses) of TCDD (13.5 nM), BaP (15.8 µM) and FICZ (22.6 µM). Following the treatments, we lysed cells, and luciferase activity was measured. Experiments were performed at least in four consecutive cell passages. Incubations were performed in quadruplicates (technical replicates). In agonist analyses, the data from a representative experiment, expressed as a fold induction of luciferase activity over control cells, are shown. In antagonist analyses, the data are a percentage of maximal induction, and they are the mean ± SD.
AZ-AHR cells were incubated for 24 h with vehicle (DMSO; 0.1% v/v) and increasing concentrations of tested MICT in the presence or absence of TCDD (13.5 nM), FICZ (22.6 µM), or BaP (15.8 µM). Then, cells were lysed, and luciferase activity was measured using the Tecan Infinite M200 plate luminometer (Schoeller Instruments, Czech Republic). The experiments were performed in at least four consecutive cell passages, and the treatments were in quadruplicates (technical replicates). The values of half-maximal effective concentration (EC50) for each MICT, and half-maximal inhibitory concentration (IC50—where appropriate) were calculated.

[2] = system: CYP1A1 mRNA; assay: CYP1A1 mRNA (qRT-PCR) in intestinal LS180 cells; assay type: cell-based, human
Experimental: Figure 4 Effects of MICT on the induction of CYP1A1 mRNA in human hepatic and intestinal cells. Cultured cells were incubated for 24 h with the vehicle (DMSO; 0.1% v/v) and tested MICT in the presence or absence of TCDD (10 nM). RT-PCR determined the level of CYP1A1 mRNA, and the data were normalized per GAPDH mRNA level. […] (A,B) Experiments in three consecutive passages of human colon adenocarcinoma cell line LS180 in the absence (A) and the presence (B) of 10 nM TCDD. The bar graphs show the percentage of maximal induction attained by TCDD and are expressed as the mean ± SD. (C) Experiments in three consecutive passages of wild-type (AhR^+/^+) and AhR-knockout (AhR^−/^−) HT-29 cells. […] (D) Primary human hepatocytes from three different donors (LH79, Hep2201020, and Hep2201021).
Total RNA was isolated using TRI Reagent® (Sigma Aldrich, Prague, Czech Republic). cDNA was synthesized using M-MuLV reverse transcriptase (New England Biolabs, Ipswich, MA, USA). The reverse transcription was performed at 42 °C for 60 min using Random Primers 6 (New England Biolabs, Ipswich, MA, USA) and diluted in a 1:4 ratio by PCR-grade water. The quantitative reverse transcriptase-polymerase chain reaction (qRT-PCR) was performed on the Lightcycler 480 II using the LightCycler ® 480 Probes Master (Roche Diagnostic Corporation, Prague, Czech Republic). The levels of CYP1A1 and GAPDH mRNAs were determined using the Universal Probe Library probes (UPL; Roche Diagnostic Corporation, Prague, Czech Republic) in combination with specific primers, using a protocol described elsewhere. All measurements were performed in triplicates, and the gene expression was normalized to glyceraldehyde-3-phosphate dehydrogenase (GAPDH) as a house-keeping gene. The data were processed using the delta-delta Ct method and expressed as a fold induction over the negative control (DMSO) or as a percentage of the positive control (maximal induction by TCDD).

[3] = biological target: T2, AhR-ARNT heterodimer (Homo sapiens, UniProt P35869); assay: Protein co-immunoprecipitation, formation of AhR-ARNT heterodimer in LS180 cells; assay type: cell-based; details: 90 min
T2 construct: 0.1% V/V) for 90 min at 37 °C; host or cells: LS180 cells
Experimental: Figure 6 MICTs induce a formation of the AhR-ARNT heterodimer. Intestinal LS180 cells were incubated with TCDD, tested MICT, and vehicle (DMSO; 0.1% V/V) for 90 min. Protein co-immunoprecipitation of ARNT was carried out, as described in the Methods section. The representative immunoblots of immuno-precipitated protein eluates and total cell lysates are shown. The experiments were performed in two consecutive cell passages.
Intestinal LS180 cells were incubated with TCDD, tested MICT, and vehicle (DMSO; 0.1% V/V) for 90 min at 37 °C. The Pierce™ Co-Immunoprecipitation Kit (Thermo Fisher Scientific) with covalently coupled AhR antibody (mouse monoclonal, sc-133088, A-3, Santa Cruz Biotechnology) was used. Eluted protein complexes and total parental lysates were resolved on SDS-PAGE gels followed by Western Blot analysis and immuno-detection with ARNT-1 antibody (mouse monoclonal, sc-17812, G-3, Santa Cruz Biotechnology). Chemiluminescent detection was performed using horseradish peroxidase-conjugated anti-mouse secondary antibody (7076S, Cell Signaling Technology) and WesternSure® PREMIUM Chemiluminescent Substrate (LI-COR Biotechnology) by C-DiGit® Blot Scanner (LI-COR Biotechnology).

[4] = LS180 cells co-incubated with TCDD (10 nM), 24 h

T2 sequence (P27540 whole entry partner, one chain of several): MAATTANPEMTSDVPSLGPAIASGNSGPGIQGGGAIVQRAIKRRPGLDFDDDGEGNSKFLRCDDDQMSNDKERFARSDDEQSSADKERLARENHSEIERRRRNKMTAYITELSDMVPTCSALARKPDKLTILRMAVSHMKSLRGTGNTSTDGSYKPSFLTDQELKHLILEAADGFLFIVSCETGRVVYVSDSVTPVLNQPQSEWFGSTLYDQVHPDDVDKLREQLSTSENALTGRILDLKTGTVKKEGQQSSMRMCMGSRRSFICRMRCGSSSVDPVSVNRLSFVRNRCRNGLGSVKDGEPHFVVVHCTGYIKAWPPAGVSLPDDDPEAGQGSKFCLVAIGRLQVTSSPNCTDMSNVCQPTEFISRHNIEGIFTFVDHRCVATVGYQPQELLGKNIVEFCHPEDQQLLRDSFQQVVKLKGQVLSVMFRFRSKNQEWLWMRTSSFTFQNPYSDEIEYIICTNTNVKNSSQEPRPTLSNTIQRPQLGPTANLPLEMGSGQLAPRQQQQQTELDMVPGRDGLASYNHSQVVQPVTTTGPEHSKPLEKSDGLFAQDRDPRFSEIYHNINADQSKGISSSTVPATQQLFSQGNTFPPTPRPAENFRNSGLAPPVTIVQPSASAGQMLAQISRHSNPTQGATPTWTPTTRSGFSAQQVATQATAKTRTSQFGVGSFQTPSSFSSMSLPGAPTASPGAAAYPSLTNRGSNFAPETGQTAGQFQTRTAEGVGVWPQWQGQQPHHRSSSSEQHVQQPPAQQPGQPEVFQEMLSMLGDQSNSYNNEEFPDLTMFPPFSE

Structure (SMILES) | effect on AhR activation by BaP [1] | effect on AhR activation by TCDD [1] | antagonistic effect against full agonists [1] | Antagonism (IC50) ([1]; Table 1 summary class) | antagonistic effects on CYP1A1 mRNA [2, 4] | induction of CYP1A1 mRNA ([2]; LS180 cells, 24 h) | formation of AhR-ARNT heterodimer [3] | antagonistic effects on CYP1A1 mRNA [2] | induction of CYP1A1 mRNA [2] | effect on AhR activation by FICZ [1] | Antagonism (IC50) [1] | IC50 [1]
Cc1c[nH]c2ccccc12 [3MI, skatole] | dose-dependently inhibited | dose-dependently inhibited | ligand-selective antagonism | ligand selective | antagonistic effects were observed primarily | strong induction | induce a formation of AhR-ARNT heterodimer | – | – | – | – | –
NCCc1c[nH]c2ccccc12 [TA, tryptamine] | – | – | dose-dependent antagonistic effect | yes–all ligands | – | strong induction | induce a formation of AhR-ARNT heterodimer | – | – | – | – | –
c1ccc2[nH]ccc2c1 [IND, indole] | – | – | dose-dependent antagonistic effect | yes–all ligands | – | – | induce a formation of AhR-ARNT heterodimer | antagonistic effects were observed primarily | strong induction | – | – | –
O=C(O)/C=C/c1c[nH]c2ccccc12 [IAC, indole-3-acrylate] | – | – | no antagonistic effects | none | to a lesser extent | strong induction | induce a formation of AhR-ARNT heterodimer | – | – | – | – | –
NC(=O)Cc1c[nH]c2ccccc12 [IAD, indole-3-acetamide] | potentiated | antagonized | – | – | – | strong induction | induce a formation of AhR-ARNT heterodimer | – | – | potentiated | – | –
O=C(O)C(O)Cc1c[nH]c2ccccc12 (centres unmarked) [ILA, indole-3-lactate] | – | – | no antagonistic effects | – | to a lesser extent | – | – | – | – | – | none | –
O=Cc1c[nH]c2ccccc12 [IA, indole-3-aldehyde] | – | – | dose-dependent antagonistic effect | yes–all ligands | antagonistic effects were observed primarily | – | – | – | – | – | – | 100 to 200 µM
O=C(O)C(=O)Cc1c[nH]c2ccccc12 [IPY, indole-3-pyruvate] | potentiated | antagonized | – | ligand selective | antagonistic effects were observed primarily | strong induction | induce a formation of AhR-ARNT heterodimer | – | – | potentiated | – | –
OCCc1c[nH]c2ccccc12 [IET, indole-3-ethanol] | – | – | no antagonistic effects | – | – | – | – | – | – | – | – | –
